Measured values published in the supplement of paper PMC10307832.

Experiments:
Test in all cases: relative viability (nuclei count vs DMSO), 5 days (fraction); higher = more cells survive
Avagacestat + Trametinib = compound: NC(=O)[C@@H](CCC(F)(F)F)N(Cc1ccc(-c2ncon2)cc1F)S(=O)(=O)c1ccc(Cl)cc1 [Avagacestat] + CC(=O)Nc1cccc(-n2c(=O)n(C3CC3)c(=O)c3c(Nc4ccc(I)cc4F)n(C)c(=O)c(C)c32)c1 [Trametinib] (partner 0.02 µM)
Method in brief: (§1)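 Lung cancer cell lines in 1536-well plates got either a single drug or a fixed anchor-drug dose together with five library-drug doses (not always all listed) in √10 steps, by pin tool, on the day after seeding. Nuclei were counted after 5 days, and relative viability is the treated-to-vehicle ratio of nuclei counts. Values are medians of duplicate plates.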

Avagacestat + OSI-027 = compound: NC(=O)[C@@H](CCC(F)(F)F)N(Cc1ccc(-c2ncon2)cc1F)S(=O)(=O)c1ccc(Cl)cc1 [Avagacestat] + COc1cccc2cc(-c3nc([C@H]4CC[C@H](C(=O)O)CC4)n4ncnc(N)c34)[nH]c12 [OSI-027] (partner 0.5 µM)
Method in brief: as §1

Avagacestat + Lapatinib = compound: NC(=O)[C@@H](CCC(F)(F)F)N(Cc1ccc(-c2ncon2)cc1F)S(=O)(=O)c1ccc(Cl)cc1 [Avagacestat] + CS(=O)(=O)CCNCc1ccc(-c2ccc3ncnc(Nc4ccc(OCc5cccc(F)c5)c(Cl)c4)c3c2)o1 [Lapatinib] (partner 2 µM)
Method in brief: as §1

Avagacestat + Linsitinib = compound: NC(=O)[C@@H](CCC(F)(F)F)N(Cc1ccc(-c2ncon2)cc1F)S(=O)(=O)c1ccc(Cl)cc1 [Avagacestat] + C[C@]1(O)C[C@@H](c2nc(-c3ccc4ccc(-c5ccccc5)nc4c3)c3c(N)nccn32)C1 [Linsitinib] (partner 1 µM)
Method in brief: as §1

Cell Line	relative viability (Avagacestat + Trametinib; first compound 0.08 µM)	relative viability (Avagacestat + Trametinib; first compound 0.253 µM)	relative viability (Avagacestat + Trametinib; first compound 0.8 µM)	relative viability (Avagacestat + Trametinib; first compound 2.53 µM)	relative viability (Avagacestat + Trametinib; first compound 8 µM)	relative viability (Avagacestat + OSI-027; first compound 0.08 µM)	relative viability (Avagacestat + OSI-027; first compound 0.253 µM)	relative viability (Avagacestat + OSI-027; first compound 0.8 µM)	relative viability (Avagacestat + OSI-027; first compound 2.53 µM)	relative viability (Avagacestat + OSI-027; first compound 8 µM)	relative viability (Avagacestat + Lapatinib; first compound 0.08 µM)	relative viability (Avagacestat + Lapatinib; first compound 0.253 µM)	relative viability (Avagacestat + Lapatinib; first compound 0.8 µM)	relative viability (Avagacestat + Lapatinib; first compound 2.53 µM)	relative viability (Avagacestat + Lapatinib; first compound 8 µM)	relative viability (Avagacestat + Linsitinib; first compound 0.08 µM)	relative viability (Avagacestat + Linsitinib; first compound 0.253 µM)	relative viability (Avagacestat + Linsitinib; first compound 0.8 µM)	relative viability (Avagacestat + Linsitinib; first compound 2.53 µM)	relative viability (Avagacestat + Linsitinib; first compound 8 µM)
LXF-289	0.725	0.656	0.767	0.659	0.636	0.817	0.757	0.703	0.673	0.804	0.895	0.921	0.886	0.892	0.814	1.02	1.02	0.957	1.02	0.82
NCI-H23	0.43	0.261	0.392	0.414	0.4	0.778	0.619	0.8	0.627	0.537	1.61	1.29	1.17	1.05	1.32	0.759	0.636	0.675	0.548	0.456
NCI-H322M	0.48	0.457	0.343	0.465	0.443	0.519	0.562	0.571	0.501	0.488	0.556	0.555	0.601	0.504	0.432	0.826	0.892	1.03	0.823	0.681
NCI-H358	0.14	0.114	0.129	0.127	0.119	0.895	0.79	0.768	0.682	0.738	0.418	0.438	0.571	0.469	0.427	0.774	0.822	0.839	0.687	0.724
NCI-H460	0.223	0.143	0.13	0.112	0.1	0.953	1.19	0.752	0.551	0.418	1.16	1.49	1.58	0.916	0.726	1.01	0.896	1.35	0.673	0.588
NCI-H520	0.814	0.792	0.611	0.497	0.616	0.241	0.316	0.22	0.249	0.215	1.03	0.878	0.846	0.724	0.663	1.15	1.09	0.933	0.864	0.889
NCI-H596	0.741	0.783	0.794	0.817	0.7	0.81	0.814	0.688	0.734	0.593	1.09	1.03	1.15	1.11	0.944	1.15	1.21	1	0.827	0.986
NCI-H647	0.475	0.502	0.463	0.396	0.384	0.552	0.773	0.575	0.559	0.572	1.42	1.13	1.25	1.09	0.811	1.78	1.35	1.12	1.16	1.19
NCI-H650	1.02	1.06	0.988	1	1.06	0.638	0.472	0.576	0.573	0.445	1.2	1.04	1.03	1.1	0.835	1.22	0.927	1.08	0.912	0.848
NCI-H661	0.589	0.632	0.604	0.548	0.521	0.786	0.775	0.694	0.704	0.669	0.508	0.594	0.473		0.497	0.736	0.713	0.634		0.566
NCI-H727	0.443	0.452	0.387	0.434	0.499	0.675	0.632	0.92	0.521	0.517	0.939	0.875	1.19	0.876	0.671	0.252	0.342	0.35	0.278	0.26
NCI-H838	0.534	0.607	0.559	0.442	0.495	0.364	0.466	0.389	0.398	0.366	1.5	1.04	1.13	0.865	0.835	1.25	1.26	1.09	0.89	0.918
NCI-H1355	0.449	0.393	0.447	0.386	0.366	0.404	0.388	0.426	0.38	0.342	1.24	1.15	1.1	0.926	0.871	0.95	0.859	0.812	0.687	0.651
NCI-H1395	1.02	1.05	0.926	0.803	0.949	0.631	0.633	0.634	0.588	0.626	0.981	1.08	0.94	1.17	0.79	1.11	1.1	1.04	0.869	0.881
NCI-H1437	0.518	0.668	0.575	0.398	0.436	0.924	0.949	0.817	0.856	0.777	1.07	0.972	0.878	0.69	0.602	1.65	1.14	1.19	0.955	0.721
NCI-H1651	0.884	0.93	0.838	0.842	0.813	0.761	0.814	0.848	0.751	0.656	1.11	1.03	0.883	0.762	0.672	1.37	1.17	1.05	0.854	0.828

Cell Line	relative viability (Avagacestat + Trametinib; first compound 0.08 µM)	relative viability (Avagacestat + Trametinib; first compound 0.253 µM)	relative viability (Avagacestat + Trametinib; first compound 0.8 µM)	relative viability (Avagacestat + Trametinib; first compound 2.53 µM)	relative viability (Avagacestat + Trametinib; first compound 8 µM)	relative viability (Avagacestat + OSI-027; first compound 0.08 µM)	relative viability (Avagacestat + OSI-027; first compound 0.253 µM)	relative viability (Avagacestat + OSI-027; first compound 0.8 µM)	relative viability (Avagacestat + OSI-027; first compound 2.53 µM)	relative viability (Avagacestat + OSI-027; first compound 8 µM)	relative viability (Avagacestat + Lapatinib; first compound 0.08 µM)	relative viability (Avagacestat + Lapatinib; first compound 0.253 µM)	relative viability (Avagacestat + Lapatinib; first compound 0.8 µM)	relative viability (Avagacestat + Lapatinib; first compound 2.53 µM)	relative viability (Avagacestat + Lapatinib; first compound 8 µM)	relative viability (Avagacestat + Linsitinib; first compound 0.08 µM)	relative viability (Avagacestat + Linsitinib; first compound 0.253 µM)	relative viability (Avagacestat + Linsitinib; first compound 0.8 µM)	relative viability (Avagacestat + Linsitinib; first compound 2.53 µM)	relative viability (Avagacestat + Linsitinib; first compound 8 µM)
NCI-H1666	1.29	1.04	1.02	0.991	0.748	1.2	0.933	1.1	0.911	0.905	0.858	0.877	0.756	0.639	0.523	1.03	0.861	1.02	0.865	1.02
NCI-H1734	0.776	0.796	0.682	0.71	0.633	0.612	0.713	0.643	0.552	0.515	1.52	1.26	1.11	1.07	1.07	1.2	0.924	0.946	0.819	0.782
NCI-H1755	0.837	0.884	0.8	0.777	0.729	0.816	0.748	0.742	0.654	0.579	1.05	1.29	1.22	1.04	1.02	1.05	1.05	1.03	0.991	0.951
NCI-H1792	0.534	0.641	0.491	0.373	0.439	1.03		0.628		0.677	1.26	0.681	1.76	0.915	0.758	0.648	0.424	0.692	0.383	0.368
NCI-H1793	0.52	0.536	0.459	0.519	0.479	0.327	0.338	0.373	0.233	0.249	1.13	0.648	1.08	0.627	0.769	1.01	0.926	1.02	0.913	0.657
NCI-H1915	0.29	0.305	0.254	0.3	0.252	0.744	0.639	0.596	0.582	0.568	0.965	1.12	1.12	0.988	0.949	1.11	1.18	1.08	1.08	1.09
NCI-H1944	0.426	0.436	0.373	0.394	0.382	0.394	0.501	0.404	0.343	0.38	0.714	0.937	0.77	0.669	0.756	1.28	1.15	1.47	1.04	1.01
NCI-H1975	0.305	0.361	0.429	0.33	0.361	0.874	0.709	0.873	0.582	0.603	0.852	1.1	1.03	0.935	0.859	1.14	1.19	1.04	0.943	0.994
NCI-H1993	0.576	0.316	0.629	0.504	0.577	0.583	0.548	0.536	0.524	0.521	0.956	0.659	0.738	0.731	0.674	0.754	0.746	0.765	0.773	0.749
NCI-H2009	0.267	0.245	0.283	0.252	0.251	0.708	0.749	0.662	0.579	0.563	0.963	0.995	0.857	0.993	0.814	1.26	1.34	1.2	1.22	1.1
NCI-H2023	0.681	0.59	0.569	0.522	0.449	0.471	0.466	0.505	0.344	0.302	0.979	0.89	0.822	0.617	0.7	0.789	0.784	0.628	0.606	0.47
NCI-H2085	0.608	0.604	0.637	0.559	0.644	0.928	0.837	0.898	0.742	0.897	0.805	0.939	0.912	0.728	0.811	0.913	0.967	1.08	0.922	0.84
NCI-H2087	0.211	0.223	0.196	0.183	0.198	0.631	0.617	0.63	0.54	0.575	1.33	1.04	1.05	1.25	1.06	1.2	1.2	1.03	1.2	1.02
NCI-H2126	0.612	0.553	0.545	0.524	0.512	0.847	0.721	0.703	0.616	0.669	0.767	0.837	0.805	0.722	0.657	0.757	0.705	0.696	0.706	0.67
NCI-H2228	0.591	0.535	0.753	0.59	0.354	0.849	0.455	0.57	0.503	0.504	1.33	0.875	1.52	1.13	0.718	1.04	0.765	0.786	0.62	0.534
NCI-H2347	0.283	0.324	0.388	0.327	0.283	0.506	0.352	0.398	0.366	0.369	0.997	0.966	1.04	0.923	0.909	1.04	0.989	1.02	0.943	0.897
